Measured values as given in patent US20130065818A1, “Arylamide Compounds And Compositions And Uses Thereof” (POLYMEDIX, priority 2006, published 2013).
Where two headings read alike, the source gives them in different places.

Experiments:
[1] = test system: Staphylococcus aureus fluoroquinolone-resistant; assay: MIC, 25 ocular isolates, broth microdilution (Example 8); type: cell-based
Experimental: (§1) • Mueller-Hinton Broth in tubes was inoculated with 25 ocular isolates of Staphylococcus aureus fluoroquinolone-susceptible, Staphylococcus aureus fluoroquinolone-resistant, Staphylococcus epidermidis (Coagulase-negative Staphylococcus) fluoroquinolone-susceptible, Staphylococcus epidermidis (Coagulase-negative Staphylococcus) fluoroquinolone-resistant, Pseudomonas aeruginosa and Serratia marcescens, plus two controls (Staphylococcus aureus and E. coli) and incubated at 37° C. overnight on a shaker set at 250 rpm.
(§2) On the day of testing, a 640 μg/ml (1280 μg/ml for Serratia marcescens and Pseudomonas aeruginosa) concentration was prepared from a 1% stock solution in 0.01% acetic acid, 0.2% BSA in polypropylene tubes.
(§3) Serial doubling dilutions in 0.01% acetic acid, 0.2% BSA in 96 well polypropylene plates, which are used as reservoirs for the inoculation of the test plates, were carried out to obtain serial dilutions of test agents at 10 times the required test concentrations: 640, 320, 160, 80, 40, 20, 10, 5, 2.5, 1.25, and 0.625 μg/ml (1280, 640, 320, 160, 80, 40, 20, 10, 5, 2.5, and 1.25 μg/ml for Serratia marcescens and Pseudomonas aeruginosa).
(§4) Ten μl of diluted 10×test agents was added to each well of one row of the 96 well polypropylene plates from column 2 to column 12 (column 1 is a control for bacteria alone, with no peptide). Test agent concentrations in columns 2-12 were as follows: 64, 32, 16, 8, 4, 2, 1, 0.5, 0.25, 0.125, and 0.0625 μg/ml (128, 64, 32, 16, 8, 4, 2, 1, 0.5, 0.25, and 0.125 μg/ml for Serratia marcescens and Pseudomonas aeruginosa). The same peptide was in each of the 8 rows. One plate contained dilutions of one test agent and 8 bacterial isolates.
(§5) On the day of testing, the overnight bacterial broth cultures of Staphylococcus aureus fluoroquinolone-susceptible, Staphylococcus aureus fluoroquinolone-resistant, Staphylococcus epidermidis (Coagulase-negative Staphylococcus) fluoroquinolone-susceptible, Staphylococcus epidermidis (Coagulase-negative Staphylococcus) fluoroquinolone-resistant, Serratia marcescens, and Pseudomonas aeruginosa, plus two controls (Staphylococcus aureus and E. coli) were diluted in 5 ml of trypticase soy broth to yield turbidity equal to a 0.5 McFarland standard. The final inoculum for MIC testing for Staphylococcus aureus fluoroquinolone-susceptible, Staphylococcus aureus fluoroquinolone-resistant, Staphylococcus epidermidis (Coagulase-negative Staphylococcus) fluoroquinolone-susceptible, Staphylococcus epidermidis (Coagulase-negative Staphylococcus) fluoroquinolone-resistant, Serratia marcescens, and Pseudomonas aeruginosa was achieved by placing 0.05 ml of the turbidity adjusted sample to 5 ml of Mueller-Hinton broth.
(§6) Ninety μl of the bacterial suspensions was dispensed in each well from column 1 to column 12. Each bacterial isolate was placed in one row of a 96 well polypropylene plate containing the test agents. The plates were placed on shaker at 15 minutes at room temperature, and then incubated at 37° C. overnight. MICs were determined visually as the lowest concentration of drug that inhibits visible bacterial growth.

[2] = test system: Staphylococcus epidermidis (Coagulase-negative Staphylococcus) fluoroquinolone-susceptible; assay: as above; type: cell-based
Experimental: as §1, §2, §3, §4, §5, §6

N=C(N)NCCCCC(=O)Nc1cc(C(F)(F)F)cc(NC(=O)c2cnc(C(=O)Nc3cc(C(F)(F)F)cc(NC(=O)CCCCNC(=N)N)c3SCCN)cn2)c1SCCN [Oligomer 5]
0.125 mg/L: MIC ([1]; Staphylococcus aureus, isolate 8—E407, read-out: MIC) | MIC ([1]; Staphylococcus aureus, isolate 16—E333, read-out: MIC) | MIC50 ([2]; 25 isolates, Row 13) | MIC ([2]; Staphylococcus epidermidis, isolate 2—E489, read-out: MIC) | MIC ([2]; Staphylococcus epidermidis, isolate 3—E491, read-out: MIC) | MIC ([2]; Staphylococcus epidermidis, isolate 5—E473, read-out: MIC) | MIC ([2]; Staphylococcus epidermidis, isolate 6—E462, read-out: MIC) | MIC ([2]; Staphylococcus epidermidis, isolate 7—E460, read-out: MIC) | MIC ([2]; Staphylococcus epidermidis, isolate 8—E453, read-out: MIC) | MIC ([2]; Staphylococcus epidermidis, isolate 9—E448, read-out: MIC) | MIC ([2]; Staphylococcus epidermidis, isolate 11—E441, read-out: MIC) | MIC ([2]; Staphylococcus epidermidis, isolate 12—E438, read-out: MIC) | MIC ([2]; Staphylococcus epidermidis, isolate 13—E437, read-out: MIC) | MIC ([2]; Staphylococcus epidermidis, isolate 14—E434, read-out: MIC) | MIC ([2]; Staphylococcus epidermidis, isolate 15—E433, read-out: MIC) | MIC ([2]; Staphylococcus epidermidis, isolate 16—E430, read-out: MIC) | MIC ([2]; Staphylococcus epidermidis, isolate 17—E420, read-out: MIC) | MIC ([2]; Staphylococcus epidermidis, isolate 18—E419, read-out: MIC) | MIC ([2]; Staphylococcus epidermidis, isolate 19—E403, read-out: MIC) | MIC ([2]; Staphylococcus epidermidis, isolate 20—E394, read-out: MIC) | MIC ([2]; Staphylococcus epidermidis, isolate 21—E393, read-out: MIC) | MIC ([2]; Staphylococcus epidermidis, isolate 23—E382, read-out: MIC) | MIC ([2]; Staphylococcus epidermidis, n=25 per group, read-out: Median MIC) | MIC50 ([2]; Staphylococcus epidermidis, 25 isolates, Summary of Results, read-out: MIC50) | MIC ([2]; Staphylococcus epidermidis, 25 isolates, Summary of Results, read-out: Median MIC) | MIC50 ([2]; n=25 per group)
0.25 mg/L: MIC50 ([1]; 25 isolates, Row 13) | MIC ([1]; Staphylococcus aureus, isolate 2—E475, read-out: MIC) | MIC ([1]; Staphylococcus aureus, isolate 3—E442, read-out: MIC) | MIC ([1]; Staphylococcus aureus, isolate 5—E425, read-out: MIC) | MIC ([1]; Staphylococcus aureus, isolate 6—E424, read-out: MIC) | MIC ([1]; Staphylococcus aureus, isolate 7—E417, read-out: MIC) | MIC ([1]; Staphylococcus aureus, isolate 9—E401, read-out: MIC) | MIC ([1]; Staphylococcus aureus, isolate 10—K1659, read-out: MIC) | MIC ([1]; Staphylococcus aureus, isolate 11—E96, read-out: MIC) | MIC ([1]; Staphylococcus aureus, isolate 14—E361, read-out: MIC) | MIC ([1]; Staphylococcus aureus, isolate 15—E339, read-out: MIC) | MIC ([1]; Staphylococcus aureus, isolate 17—E332, read-out: MIC) | MIC ([1]; Staphylococcus aureus, isolate 18—E327, read-out: MIC) | MIC ([1]; Staphylococcus aureus, isolate 19—E325, read-out: MIC) | MIC ([1]; Staphylococcus aureus, isolate 20—K950, read-out: MIC) | MIC ([1]; Staphylococcus aureus, isolate 21—K839, read-out: MIC) | MIC ([1]; Staphylococcus aureus, isolate 22—K1679, read-out: MIC) | MIC ([1]; Staphylococcus aureus, isolate 24—K1672, read-out: MIC) | MIC ([1]; Staphylococcus aureus, isolate 25—K1670, read-out: MIC) | MIC ([1]; Staphylococcus aureus, n=25 per group, read-out: Median MIC) | MIC50 ([1]; Staphylococcus aureus, 25 isolates, Summary of Results, read-out: MIC50) | MIC ([1]; Staphylococcus aureus, 25 isolates, Summary of Results, read-out: Median MIC) | MIC50 ([1]; n=25 per group) | MIC90 ([2]; 25 isolates, Row 22) | MIC ([2]; Staphylococcus epidermidis, isolate 1—E511, read-out: MIC) | MIC ([2]; Staphylococcus epidermidis, isolate 4—E476, read-out: MIC) | MIC ([2]; Staphylococcus epidermidis, isolate 22—E328, read-out: MIC) | MIC ([2]; Staphylococcus epidermidis, isolate 24—E381, read-out: MIC) | MIC90 ([2]; Staphylococcus epidermidis, 25 isolates, Summary of Results, read-out: MIC90) | MIC90 ([2]; n=25 per group)
0.125 to 0.5 µg/mL: Range of MICs ([1]; 25 isolates, Summary of Results) | Range of MICs ([1]; n=25 per group)
0.03125 to 0.25 µg/mL: Range of MICs ([2]; 25 isolates, Summary of Results, <0.0625 was Replaced with 0.03125) | Range of MICs ([2]; n=25 per group)
< 0.0625 mg/L: MIC ([2]; Staphylococcus epidermidis, isolate 10—E443, read-out: MIC) | MIC ([2]; Staphylococcus epidermidis, isolate 25—E372, read-out: MIC)
≤ 0.25 mg/L: MIC ([1]; Staphylococcus aureus, 25 ocular isolates, read-out: Median MIC) | MIC ([2]; Staphylococcus epidermidis, 25 ocular isolates, read-out: Median MIC)
0.5 mg/L: MIC90 ([1]; 25 isolates, Row 22) | MIC ([1]; Staphylococcus aureus, isolate 1—E504, read-out: MIC) | MIC ([1]; Staphylococcus aureus, isolate 4—E427, read-out: MIC) | MIC ([1]; Staphylococcus aureus, isolate 12—E379, read-out: MIC) | MIC ([1]; Staphylococcus aureus, isolate 13—E369, read-out: MIC) | MIC ([1]; Staphylococcus aureus, isolate 23—K1677, read-out: MIC) | MIC90 ([1]; Staphylococcus aureus, 25 isolates, Summary of Results, read-out: MIC90) | MIC90 ([1]; n=25 per group)
